Series [1] relates to RPMI 8226 cells. Nature of the series: MTT assay of cell viability in RPMI 8226 cells. It is filed as cell-based, Human. The settings on record: for fold more active than the reference compound Hib-ester: after 24 h of treatment; for profile in MTT and Trypan blue tests compared with racemate: enantiomers of 13, 10, 100 and 500 µM. The method, then: RPMI 8226 cells were treated with different concentrations of all compounds (10, 100 and 500 µM) at 24 h. The concentrations have been chosen based on the results previously obtained with Hib-ester. MTT assay was performed to assess cell viability and calculate the IC50 (Table 1). For compounds not showing a significant reduction of cell viability at the concentration of 500 µM, the IC50 was not calculated, and they have been considered not effective. Untreated cells were used as control (CTRL).
Human multiple myeloma RPMI 8226 cells were cultured in RPMI 1640 medium supplemented with 10% fetal bovine serum, 1% L-glutamine and 1% penicillin and streptomycin (Euroclone, Italy). Human glioblastoma U87-MG cells were cultured in DMEM low glucose supplemented with 10% fetal bovine serum, 1% L-glutamine and 1% penicillin and streptomycin (Euroclone, Italy). Cells were incubated in a humidified incubator at 37 °C and 5% CO2. A stock solution of all compounds in DMSO (50 mM) was prepared and then directly diluted in culture medium.
Cells were seeded in 96-well plates at a density of 1 × 10^4 cells/well and were treated after 24 h with RA, AM or SU molecules. After 24 h, a 3-(4,5-dimethylthiazol-2-yl)-2,5-diphenyltetrazolium bromide (MTT, Sigma Aldrich, United States) solution was added to each well to reach a final concentration of 0.5 mg/mL. After 4 h of incubation (4 h for RPMI 8226 cells), formazan salt was solubilized in ethanol and absorbance was measured at 570 nm in a microplate reader (BMG-Labtech, Ortenberg, Germany).
(Formazan colour is commonly taken as a measure of viable cells.)

In series [2] the test system is RPMI 8226 cells. Nature of the series: MTT assay of cell viability in RPMI 8226 cells. It is filed as cell-based, Human. The conditions noted are these: for change of MTT efficacy over time: 24, 48 and 72 h; for IC50: Homo sapiens.
Series [3] deals with RPMI 8226 cells. Nature of the series: Trypan blue vital count assay (viable and dead cells). The format is cell-based, Human. The conditions noted are these: 100 µM. The method, then:
RPMI 8226 cells treated with Bortezomib (BTZ) 1, 5 and 10 nM were used as positive control for all experiments (Figure S2, Supplementary Information). Cells were seeded in 6-well plates at a density of 2.5 × 10^5 cells/well and were treated after 24 h with different concentrations of RA molecules. After 24 h of treatment, cells were collected and stained with Trypan blue vital dye (Sigma Aldrich, Burlington, VT, USA). Viable and dead cells were then counted in a hemocytometer under a light microscope.

Series [4] has as its target T1, proteasome (Homo sapiens, UniProt P28074).
T1 construct: endogenous in cells; host or cells: RPMI 8226 (human multiple myeloma)
T1 sequence (P28074 60-263): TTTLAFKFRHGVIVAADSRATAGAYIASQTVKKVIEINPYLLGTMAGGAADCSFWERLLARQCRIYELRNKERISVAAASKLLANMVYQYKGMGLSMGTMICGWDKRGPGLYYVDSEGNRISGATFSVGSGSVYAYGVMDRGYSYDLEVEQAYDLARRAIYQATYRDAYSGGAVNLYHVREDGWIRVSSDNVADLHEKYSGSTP
Nature of the series: Proteasome activity assay on lysates of treated RPMI 8226 cells (Suc-LLVY-AMC substrate). The format is cell-based. The settings on record: for proteasome inhibition activity: after 24 h, 10, 100 and 500 µM; for IC50: RPMI 8226 cells treated 24 h, read-out: IC50 (proteasome inhibition). The method, then:
RPMI 8226 cells treated with Bortezomib (BTZ) 1, 5 and 10 nM were used as positive control for all experiments (Figure S2, Supplementary Information).
Cells not used in the Trypan blue assay were lysed to assess proteasome activity. Briefly, cells were resuspended in a lysis buffer (50 mM Hepes Ph 7.5, 150 mM NaCl, 10% glycerol, 1% Triton X-100, 1.5 mM MgCl2, 5 mM EGTA) and were mechanically lysed with a vortex. Obtained protein lysates were centrifuged at 13,500 RPM for 15 min and were quantified using the Bradford method. Some 40 µg of proteins were then loaded in black-96-well plate to perform the proteasome activity assay. In each well, 7.6 mg/mL proteasome substrate (N-Succinyl-Leu-Leu-Val-Tyr-7-Amido-4-Methylcoumarin, Sigma Aldrich, United States) and proteasome buffer (250 mM Hepes pH 7.5, 5 mM EDTA pH 8.0, 0.5% NP-40, 0.01% SDS) were added to the proteins. Fluorescence was measured after 2 h of incubation in a microplate reader (excitation 380 nm, emission 460 nm; BMG-Labtech, Ortenberg, Germany).
RPMI 8226 cells were treated with different concentrations (10, 100 and 500 µM) of each compound and, after 24 hours, proteasome activity assay was performed.
Supplementary Figure S1. Proteasome activity of RPMI 8226 cells treated with (2R,3R/2S,3S)-13, 14, 16 and 20. Proteasome activity was evaluated in cells treated for 24 hours with different concentrations (10, 100 and 500 µM) of compounds. The graphs represent the mean proteasome activity ± SD, compared to untreated controls, arbitrarily set to 100%. ** p < 0.01 vs CTRL.
RPMI 8226 cells treated with BTZ 1, 5 and 10 nM were used as positive control for all experiments. […]
The graphs represent the mean cell number ± SD of viable and dead cells. ** p < 0.01 vs CTRL; C) Proteasome activity of RPMI 8226 cells treated with BTZ. Proteasome activity was evaluated in cells treated for 24 hours with different concentrations (1, 5 and 10 nM) of BTZ. The graphs represent the mean proteasome activity ± SD, compared to untreated controls, arbitrarily set to 100%. ** p < […]

[5] abbreviates: 24 h, MTT assay, concentrations 10, 100 and 500 µM, n.e.* = compounds not effective at 500 µM.
[6] abbreviates: Homo sapiens, RPMI-8226, 24 h, MTT assay, concentrations 10, 100 and 500 µM, n.e.* = compounds not effective at 500 µM, read-out: IC50 μM RPMI8226.
The mark [7] stands for this setting: Homo sapiens, RPMI-8226, 24 h of treatment, read-out: IC50 (MTT).
The mark [8] stands for this setting: 24 h, MTT assay, concentrations 10, 100 and 500 µM, n.e.* = compounds not effective at 500 µM, read-out: IC50 μM RPMI8226.
Where [9] appears, read: 24 h of treatment, read-out: IC50 (MTT).

Where two headings read alike, the source gives them in different places.

As usually defined, the IC50 is the concentration that inhibits the measured activity by half. As a reminder, the melting point is the temperature of the solid-liquid transition.

On to “1-Benzyl-2-(3,5-dimethoxyphenyl)-5-oxopyrrolidine-3-carboxylic Acid [(2R,3R/2S,3S)-15]”, for which, in series [1] (setting [5]), the “IC50 μM RPMI8226” value was “n.e.*”.

For the compound “2-(3,5-Dimethoxyphenyl)-1-isobutyl-5-oxopyrrolidine-3-carboxylic Acid [(2R,3R/2S,3S)-11]”, the “IC50 μM RPMI8226” value in series [1] (setting [5]) was “n.e.*”.

For `O=C(O)C1CC(=O)N(Cc2ccccc2)C1c1ccccc1` (racemic) [(2R,3R/2S,3S)-13, 1-Benzyl-5-oxo-2-phenylpyrrolidine 3-Carboxylic Acid], the “change of MTT efficacy over time” value in series [2] is “time-dependent effect”. The IC50 in series [2] (RPMI-8226, 48 h) is 85 µM; in series [2] (RPMI-8226, 72 h) it was 15 µM; in series [1] (setting [6]), 169 ± 21 µM; in series [1] (setting [7]) it was under 350 µM. Moreover, the “fold more active than Hib-ester in reducing RPMI 8226 cells growth” value in series [2] (after 24 and 72 h of treatment) is “twelve-fold more active”. Also, the “fold more active than the reference compound Hib-ester” value in series [1] is on record as “at least 6 fold”. In series [3], the “cell death (Trypan blue vital count)” value is given as “significant increase in cell death”. In series [4], the proteasome inhibition activity result is “most effective”.

In the case of `CCCCN1CC(C(=O)O)CC1=O` (racemic) [(S/R)-4], in series [1] (setting [5]), the “IC50 μM RPMI8226” value is given as “n.e.*”.

With `CCCCN1CC(C(=O)OC)CC1=O` (racemic) [(S/R)-5, Methyl 1-Butyl-5-oxopyrrolidine-3-carboxylate], the “IC50 μM RPMI8226” value in series [1] (setting [5]) is listed as “n.e.*”.

As for `COC(=O)C1CNC(=O)C1` (racemic) [(S/R)-6], the “IC50 μM RPMI8226” value in series [1] (setting [5]) is “n.e.*”.

Take `COC(=O)C1CC(=O)N(C)C1` (racemic) [(S/R)-7, Methyl 1-Methyl-5-oxopyrrolidine-3-carboxylate]: in series [1] (setting [5]), the “IC50 μM RPMI8226” value was “n.e.*”.

In the case of `O=C(O)C1CC(=O)N(Cc2ccccc2)C1c1ccccc1` (single isomer, unassigned; (+)) [(+)-(2S,3S)-13], the “profile in MTT and Trypan blue tests compared with racemate” value in series [1] is “less antiproliferative properties”. For the same compound, the IC50 in series [4] is 189 ± 17 µM.

`O=C(O)C1CC(=O)N(Cc2ccccc2)C1c1ccccc1` (single isomer, unassigned; (-)) [(−)-(2R,3R)-13]: the “profile in MTT and Trypan blue tests compared with racemate” value in series [1] is on record as “profile comparable with racemate”. For the same compound, the IC50 in series [4] is 90 ± 8 µM. In addition, the “activity relative to the opposite enantiomer in the biological assays” value in series [4] (enantiomers of 13) is “twofold more active”.

As for `O=C1CC(C(=O)O)C(c2ccccc2)O1` [(2R,3R/2S,3S)-1], the “IC50 μM RPMI8226” value in series [1] (setting [5]) is reported as “n.e.*”.

For the compound `COC(=O)[C@@H]1CC(=O)O[C@@H]1c1ccccc1` [(2R,3R/2S,3S)-2, Methyl (2S,3R)-5-Oxo-2phenyltetrahydrofuran-3-Carboxylate], the “IC50 μM RPMI8226” value in series [1] (setting [5]) is given as “n.e.*”.

With `COC(=O)C1CC(=O)NC1C(=O)OC` [(2R,3R/2S,3S)-8, Dimethyl 5-Oxopyrolidine-2,3-dicarboxylate], the “IC50 μM RPMI8226” value in series [1] (setting [5]) is listed as “n.e.*”.

In the case of `CC(C)CN1C(=O)CC(C(=O)O)C1c1ccccc1` [(2R,3R/2S,3S)-9, 1-Isobutyl-5-oxo-2-phenylpyrrolidine 3-Carboxylic Acid], the melting point lay in the range of 120.6 to 122.7 °C. Besides, in series [1] (setting [5]), the “IC50 μM RPMI8226” value was “n.e.*”.

As for `COC(=O)C1CC(=O)N(CC(C)C)C1c1ccccc1` [(2R,3R/2S,3S)-10, Methyl 1-Isobutyl-5-oxo-2-phenylpyrrolidine-3-carboxylate], the figures for the half-maximal inhibitory concentration (IC50) in series [1] (setting [6]) and in series [1] (setting [7]) were 265 ± 49 µM and under 350 µM, respectively. Further, the “fold more active than the reference compound Hib-ester” value in series [1] is given as “at least 6 fold”.

Turning to `COC(=O)C1CC(=O)N(Cc2ccccc2)C1c1ccccc1` [(2R,3R/2S,3S)-14, Methyl 1-Benzyl-5-oxo-2-phenylpyrrolidine-3-carboxylate], the “change of MTT efficacy over time” value in series [2] is “time-dependent effect”. Besides, the IC50 in series [2] (RPMI-8226, 48 h) was 43 µM; in series [2] (RPMI-8226, 72 h), 34 µM; in series [1] (setting [6]) it was 61 ± 12 µM; in series [1] (setting [7]) it was under 350 µM. Besides, the “fold more active than the reference compound Hib-ester” value is 34 fold in series [1] and “at least 6 fold” in series [1] (listed as 14). Moreover, the “cell death (Trypan blue vital count)” value in series [3] is “significant increase in cell death”. The “proteasome inhibition at the lowest evaluated concentration” value in series [4] (10 µM, 24 h) is “significant inhibition”. Moreover, in series [4], the proteasome inhibition activity result was “most effective”.

In the case of `CC(C)CN1C(=O)CCC(C(=O)O)C1c1ccccc1` [(2R,3R/2S,3S)-17, 1-Isobutyl-6-oxo-2-phenylpiperidine 3-Carboxylic Acid], the “IC50 μM RPMI8226” value in series [1] (setting [5]) is reported as “n.e.*”.

For `COC(=O)C1CCC(=O)N(CC(C)C)C1c1ccccc1` [(2R,3R/2S,3S)-18, Methyl 1-Isobutyl-6-oxo-2-phenylpiperidine-3-carboxylate], the IC50 in series [1] (setting [6]) is 301 ± 29 µM; in series [1] (setting [7]), under 350 µM. Moreover, the “fold more active than the reference compound Hib-ester” value in series [1] was “at least 6 fold”.

Regarding `O=C(O)C1CCC(=O)N(Cc2ccccc2)C1c1ccccc1` [(2R,3R/2S,3S)-19, 1-Benzyl-6-oxo-2-phenylpiperidine 3-Carboxylic Acid], the “IC50 μM RPMI8226” value in series [1] (setting [5]) was “n.e.*”.

Turning to `COC(=O)C1CCC(=O)N(Cc2ccccc2)C1c1ccccc1` [(2R,3R/2S,3S)-20, Methyl 1-Benzyl-6-oxo-2-phenylpiperidine-3-carboxylate], in series [2], the “change of MTT efficacy over time” value is reported as “did not show a significant increase in efficacy over time”. Further, the IC50 is 152 ± 29 µM in series [1] (setting [6]) and under 350 µM in series [1] (setting [7]). Besides, in series [1], the “fold more active than the reference compound Hib-ester” value is recorded as “at least 6 fold”.

Regarding `COC(=O)[C@@H]1CCC(=O)N1` [(S)-3, (S)-Methyl-5-oxopyrrolidine-2-carboxylate], the “IC50 μM RPMI8226” value in series [1] (setting [5]) was “n.e.*”.

Turning to “Methyl 1-Benzyl-2-(3,5-dimethoxyphenyl)-5-oxopyrrolidine-3-carboxylate [(2R,3R/2S,3S)-16]”, in series [2], the “change of MTT efficacy over time” value is given as “did not show a significant increase in efficacy over time”. The 50% inhibitory concentration (IC50) in series [1] (setting [8]) was 138 ± 27 µM; in series [1] (setting [9]), under 350 µM. Moreover, the “fold more active than the reference compound Hib-ester” value in series [1] was “at least 6 fold”.

With “Methyl 2-(3,5-Dimethoxyphenyl)-1-isobutyl-5-oxopyrrolidine-3-carboxylate [(2R,3R/2S,3S)-12]”, the 50% inhibitory concentration (IC50) in series [1] (setting [8]) was 263 ± 41 µM; in series [1] (setting [9]), under 350 µM. The “fold more active than the reference compound Hib-ester” value in series [1] is reported as “at least 6 fold”.

The record behind these values is paper PMC9658545, “From Nature to Synthetic Compounds: Novel 1(N),2,3 Trisubstituted-5-oxopyrrolidines Targeting Multiple Myeloma Cells” (International Journal of Molecular Sciences, 2022).
